The record followed here is patent EP1100481B1, “PHARMACEUTICAL FORMULATIONS COMPRISING BECLOMETHASONE DIPROPIONATE FOR THE TREATMENT OF INFLAMMATORY BOWEL DISEASE” (CHIESI FARMACEUTICI S.p.A., priority 1998, dated 2000).

Structures are written as SMILES.

The series can be described thus: Pharmacokinetic-scintigraphic study of systemic absorption. The series is classed as in vivo. As to conditions: healthy volunteers. Here is the method: The disintegration behavior of the tablets was also evaluated in vivo, at the intestinal site, in a study carried out on 8 healthy volunteers. A scintigraphic technique was employed as it is suitable for evaluating the position and integrity of the tablet within the gastrointestinal tract (Steed K.P. et al. Int J Pharmaceutics 1994; 112:199-206). […] These findings confirmed that the modified-relase tablets of the invention meet the requirements considered necessary for a formulation designed for the topical treatment of inflammatory bowel disease.

As to `CCC(=O)OCC(=O)[C@@]1(OC(=O)CC)[C@@H](C)C[C@H]2[C@@H]3CCC4=CC(=O)C=C[C@]4(C)[C@@]3(Cl)[C@@H](O)C[C@@]21C` [BDP, beclomethasone dipropionate], the “systemic absorption of unmetabolised BDP and/or of its metabolites” value is recorded as “absence of systemic absorption”.
